Reference: US20040259794A1 (priority 1999, published 2004)

Test system: Hartley guinea pigs
Details: guinea pig, in vivo

SMILES	Duration, time for full recovery
CCCCN1CCCCC1C(=O)Nc1c(C)cccc1C (centres unmarked) [bupivacaine]	~90 min
CCN(CC)CC(=O)Nc1c(C)cccc1C [lidocaine]	≈ 30 minutes
